Tested on: PC12 (TrkA & p75)
Test: 125I-NGF binding displacement in PC12 cells
Design: species or system rat
Settings: PC12 cells expressing TrkA and p75; result in words
Experimental: The method for acquiring the PC12 data described in Table 1 is described herein in Example 1. Each experiment was done at least once with an n value of 4 for each data point. (n/a=not acquired)
(§1) All cells were incubated at 37° C. in 5% CO2. PC12 cells were maintained in RPMI-1640 medium supplemented with 10% fetal bovine serum (FBS). A875 human melanoma cells were maintained in DMEM with 10% FBS. HEK 293 cells were stably transfected with human TrkA plasmid (see below) and maintained in DMEM with 10% FBS and G418 (600 μg/mL) for selection.
NGF binding was evaluated using methods familiar to those who are skilled in the art. Briefly, cells expressing one or both NGF receptors (PC12: TrkA+p75; A875: p75 alone; HEK_trkA: TrkA alone) were harvested by replacing the medium with calcium-magnesium free balanced salt (Grey's) solution and incubating at 37° C. for 15 min. For NGF binding, cells were resuspended at a concentration of 2×10^6 cells/mL in HEPES-Krebs-Ringer (HKR) buffer (10 mM HEPES; 125 mM NaCl; 4.8 mM KCl; 1.3 mM CaCl2; 1.2 mM MgSO4; 1.2 mM KH2PO4; 1 mg/ml BSA; 1 mg/ml glucose; pH 7.4) and exposed to ^125I-NGF (˜0.1 nM) in the presence or absence of varying concentrations of the compound. Non-specific binding was determined for reference by incubating ^125I-NGF with an excess of non-radioactive NGF in the abence of compound. Following a two-hour incubation period at 4° C., ^125I-NGF bound to the cells was quantified in a gamma radiation counter following separation from unbound NGF by filtration or centrifugation through glycerol (10% in HKR). Inhibition of binding was calculated as a percent of the specific binding (calculated as the differential between ^125I-NGF binding in the absence and presence of an excess of non-radioactive NGF without compound). Dose-response inhibition curves were typically generated with seven concentrations of a given compound, with three replicates for each concentration. For most compounds, multiple dose-response curves were generated.
The IC50 data shown in Table 1 were acquired using the procedure described herein using PC12 cells.

Compound	blocking of NGF binding (dose-response curve)
O=C1c2cccc3cc([N+](=O)[O-])cc(c23)C(=O)N1c1ccc(S(=O)(=O)O)cc1 [Compound 71, 4-(5-Nitro-1,3-dioxo-1H,3H-benzo[de]isoquinolin-2-yl)-benzenesulfonic acid]	effectively block NGF binding
O=C(O)c1ccc(Cl)c(N2C(=O)c3cc([N+](=O)[O-])cc4cc([N+](=O)[O-])cc(c34)C2=O)c1 [Compound 7, 4-Chloro-3-(5,8-dinitro-1,3-dioxo-1H,3H-benzol[de]isoquinolin-2-yl)-benzoic acid]	effectively blocks NGF binding
CC(=O)Nc1cc2c3c(cc(NC(C)=O)cc3c1)C(=O)N(c1cccc(C(=O)O)c1)C2=O [Compound 94, 3-(5,8-Bis-acetylamino-1,3-dioxo-1H,3H-benzo[de]isoquinolin-2-yl)-benzoic acid]	effectively blocks NGF binding

Same assay, conditions: PC12 cells, compound concentration 25 μM

Compound	PC12 (TrkA & p75) Single point (% max binding) Mean
O=C(O)c1ccc(Cl)c(N2C(=O)c3cccc4c(Cl)ccc(c34)C2=O)c1 [Compound 111, 4-Chloro-3-(6-chioro-1,3-dioxo-1H,3H-benzo[de]isoquinolin-2-yl)-benzoic acid]	** (30 > ** > 50)
CC(=O)Nc1ccc(C(=O)O)cc1N1C(=O)c2cccc3cc([N+](=O)[O-])cc(c23)C1=O [Compound 110, 4-Acetylamino-3-(5-nitro-1,3-dioxo-1H,3H-benzo[de]isoquinolin-2-yl)-benzoic acid]	** (30 > ** > 50)
O=C(O)c1ccc(Cl)c(N2C(=O)c3cccc4c(C(=O)c5ccccc5)ccc(c34)C2=O)c1 [Compound 98, 3-(6-Benzoyl-1,3-dioxo-1H,3H-benzo[de]isoquinolin-2-yl)-4-chloro-benzoic acid]	*** (0 > *** > 30)
CCOC(=O)c1cc(N2C(=O)c3cccc4c([N+](=O)[O-])ccc2c34)ccc1Cl [Compound 108, 2-Chloro-5-(6-nitro-2-oxo-2H-benzo[cd]indol-1-yl)-benzoic acid ethyl ester]	* (* > 50)
O=C(O)c1ccc(Cl)c(N2C(=O)c3cccc4c(C(=O)O)ccc(c34)C2=O)c1 [Compound 99, 2-(5-Carboxy-2-chloro-phenyl)-1,3-dioxo-2,3-dihydro-1H-benzo[de]isoquinoline-6-carboxylic acid]	* (* > 50)
CCOC(=O)c1cccc(N2C(=O)c3cccc4c([N+](=O)[O-])ccc2c34)c1 [Compound 106, 3-(6-Nitro-2-oxo-2H-benzo[cd]indol-1-yl)-benzoic acid ethyl ester]	* (* > 50)
O=C(O)c1cccc(N2C(=O)c3cccc4cccc2c34)c1 [Compound 107, 3-(2-Oxo-2H-benzo[cd]indol-1-yl)-benzoic acid]	** (30 > ** > 50)
CCOC(=O)c1cccc(N2C(=O)c3cccc4cccc2c34)c1 [Compound 105, 3-(2-Oxo-2H-benzo[cd]indol-1-yl)-benzoic acid ethyl ester]	* (* > 50)

Same assay, conditions: PC12 cells, compound concentration 50 μM

Compound	PC12 (TrkA & p75) Single point (% max binding) Mean
O=C(O)c1cc(Cl)cc(N2C(=O)c3cccc4cc([N+](=O)[O-])cc(c34)C2=O)c1Cl [Compound 51, 2,5-Dichloro-3-(5-nitro-1,3-dioxo-1H,3H-benzo[de]isoquinolin-2-yl)-benzoic acid]	* (* > 50)
Nc1cc2c3c(cc(Br)cc3c1)C(=O)N(c1cc(C(=O)O)ccc1Cl)C2=O [Compound 56, 3-(5-Amino-8-bromo-1,3-dioxo-1H,3H-benzo[de]isoquinolin-2-yl)-4-chloro-benzoic acid]	* (* > 50)
CC(=O)Nc1cc2c3c(cc(Br)cc3c1)C(=O)N(c1cc(C(=O)O)ccc1Cl)C2=O [Compound 57, 3-(5-Acetylamino-8-bromo-1,3-dioxo-1H,3H-benzo[de]isoquinolin-2-yl)-4-chloro-benzoic acid]	** (30 > ** > 50)
Nc1cc2c3c(cc(N)cc3c1)C(=O)N(c1ccc(S(=O)(=O)O)cc1)C2=O [Compound 118, 4-(5,8-Diamino-1,3-dioxo-1H,3H-benzo[de]isoquinolin-2-yl)-benzenesulfonic acid]	** (30 > ** > 50)
O=C(O)c1ccc(Cl)c(N2C(=O)c3cc(Br)cc4cc([N+](=O)[O-])cc(c34)C2=O)c1 [Compound 53, 3-(5-Bromo-8-nitro-1,3-dioxo-1H,3H-benzo[de]isoquinolin-2-yl)-4-chloro-benzoic acid]	* (* > 50)

Same assay, conditions: PC12 cells, concentration cell printed as '═'

Compound	PC12 (TrkA & p75) Single point (% max binding) Mean
CC(=O)Nc1cc2c3c(cc(NC(C)=O)cc3c1)C(=O)N(c1ccc(S(=O)(=O)O)cc1)C2=O [Compound 119, 4-(5,8-Bis-acetylamino-1,3-dioxo-1H,3H-benzol[de]isoquinolin-2-yl)-benzenesulfonic acid]	** (30 > ** > 50)

Tested on: human TrkA (HEK_trkA: TrkA alone)
Test: 125I-NGF binding displacement in HEK_trkA cells
Settings: result in words
Experimental: as §1
Expression of human TrkA in HEK cells was achieved by transfecting the cells with the TrkA expression vector using Lipofectamine (Invitrogen) reagent. HEK cells were plated in 100 mm Petri dishes at a concentration of 10^6 cells per dish. The next day, a solution of DNA diluted in 1 mL OptiMEM (Invitrogen) per dish was prepared and incubated for 15 min at room temperature. […]
NGF binding was evaluated using methods familiar to those who are skilled in the art. […] Non-specific binding was determined for reference by incubating ^125I-NGF with an excess of non-radioactive NGF in the abence of compound. Following a two-hour incubation period at 4° C., ^125I-NGF bound to the cells was quantified in a gamma radiation counter following separation from unbound NGF by filtration or centrifugation through glycerol (10% in HKR). Inhibition of binding was calculated as a percent of the specific binding (calculated as the differential between ^125I-NGF binding in the absence and presence of an excess of non-radioactive NGF without compound). […]

Compound	blocking of NGF binding to TrkA (dose-response curve)
CC(=O)Nc1cc2c3c(cc(NC(C)=O)cc3c1)C(=O)N(c1cccc(C(=O)O)c1)C2=O [Compound 94, 3-(5,8-Bis-acetylamino-1,3-dioxo-1H,3H-benzo[de]isoquinolin-2-yl)-benzoic acid]	effectively blocks NGF binding to TrkA

— US20070123514A1, “Methods of modulating neurotrophin-mediated activity” (PainCeptor Pharma Corporation, priority 2005, published 2007)
